Data on ten compounds can be found in patent US20240269139A1, “COMPOUNDS FOR TARGETED PROTEIN DEGRADATION OF KINASES” (DANA-FARBER CANCER INSTITUTE, INC., priority 2020, published 2024).

Assay type in all cases: cell-based
Test [1] addresses protein kinases (human kinome) (Homo sapiens, UniProt P17948). The note with it: experiment wp131.
Test [2] has as its target protein kinases (human kinome) (Homo sapiens, UniProt Q8TCT0). The note with it: protein CERK (Q8TCT0); experiment wp131; down.
Test [3] addresses protein kinases (human kinome) (Homo sapiens, UniProt Q16644). To be noted: experiment wp168.
Test [4] concerns the target protein kinases (human kinome) (Homo sapiens, UniProt Q96S53). To be noted: experiment wp147, 4 uM.
Test [5] deals with T1, protein kinases (human kinome) (Homo sapiens, UniProt P78356).
T1 sequence (P78356 1-416): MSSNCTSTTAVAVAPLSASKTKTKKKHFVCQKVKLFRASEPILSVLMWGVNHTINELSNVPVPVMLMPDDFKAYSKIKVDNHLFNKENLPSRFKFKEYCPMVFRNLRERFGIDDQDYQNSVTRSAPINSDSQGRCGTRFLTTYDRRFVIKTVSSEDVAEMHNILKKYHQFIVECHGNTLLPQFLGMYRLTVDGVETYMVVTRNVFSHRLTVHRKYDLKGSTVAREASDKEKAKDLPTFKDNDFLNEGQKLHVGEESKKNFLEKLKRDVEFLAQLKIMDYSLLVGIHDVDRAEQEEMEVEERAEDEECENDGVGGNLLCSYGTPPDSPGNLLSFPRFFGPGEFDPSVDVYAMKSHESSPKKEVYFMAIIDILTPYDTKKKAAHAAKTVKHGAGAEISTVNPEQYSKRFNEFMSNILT
To be noted: PIP4K2B (P78356).

Test [6] deals with protein kinases (human kinome) (Homo sapiens, UniProt P31749). The note with it: for logFC: AKT1 (P31749).
For test [7], the target named is T2, protein kinases (human kinome) (Homo sapiens, UniProt Q13163).
T2 sequence (Q13163 1-448): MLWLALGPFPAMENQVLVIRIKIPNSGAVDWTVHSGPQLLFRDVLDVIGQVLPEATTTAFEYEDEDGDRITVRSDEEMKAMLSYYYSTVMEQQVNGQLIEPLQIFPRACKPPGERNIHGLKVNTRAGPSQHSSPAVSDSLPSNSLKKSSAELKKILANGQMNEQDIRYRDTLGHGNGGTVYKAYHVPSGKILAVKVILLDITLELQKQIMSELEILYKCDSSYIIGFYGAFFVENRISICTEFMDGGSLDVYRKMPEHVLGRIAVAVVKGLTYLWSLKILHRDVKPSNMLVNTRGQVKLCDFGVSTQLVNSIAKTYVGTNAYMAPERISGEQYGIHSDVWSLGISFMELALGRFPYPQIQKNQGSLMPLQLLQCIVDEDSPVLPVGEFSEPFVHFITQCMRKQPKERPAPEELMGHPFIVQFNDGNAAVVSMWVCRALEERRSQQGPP
The note with it: experiment wp071.

In test [8] the target is protein kinases (human kinome) (Homo sapiens, UniProt Q01415). The note with it: protein GALK2 (Q01415-1); experiment wp056; down.
For test [9], the target named is protein kinases (human kinome) (Homo sapiens, UniProt Q8NFU5). To be noted: IPMK (Q8NFU5).
Test [10] deals with protein kinases (human kinome) (Homo sapiens, UniProt P49841).
Test [11] addresses protein kinases (human kinome) (Homo sapiens, UniProt Q8N4C8). To be noted: experiment wp107.
Test [12] deals with protein kinases (human kinome) (Homo sapiens, UniProt Q15120). To be noted: experiment wp160, 1 hr.
The target in test [13] is protein kinases (human kinome) (Homo sapiens, UniProt Q96DU7). To be noted: protein ITPKC (Q96DU7); experiment wp133, 4 hr; down.
Test [14] has as its target protein kinases (human kinome) (Homo sapiens, UniProt P50750).
Test [15] concerns the target protein kinases (human kinome) (Homo sapiens, UniProt Q16877). The note with it: PFKFB4 (Q16877); experiment wp080.

Where two headings read alike, the source gives them in different places.

Chain of protein kinases (human kinome) (Homo sapiens, UniProt P50750) (P50750 whole entry): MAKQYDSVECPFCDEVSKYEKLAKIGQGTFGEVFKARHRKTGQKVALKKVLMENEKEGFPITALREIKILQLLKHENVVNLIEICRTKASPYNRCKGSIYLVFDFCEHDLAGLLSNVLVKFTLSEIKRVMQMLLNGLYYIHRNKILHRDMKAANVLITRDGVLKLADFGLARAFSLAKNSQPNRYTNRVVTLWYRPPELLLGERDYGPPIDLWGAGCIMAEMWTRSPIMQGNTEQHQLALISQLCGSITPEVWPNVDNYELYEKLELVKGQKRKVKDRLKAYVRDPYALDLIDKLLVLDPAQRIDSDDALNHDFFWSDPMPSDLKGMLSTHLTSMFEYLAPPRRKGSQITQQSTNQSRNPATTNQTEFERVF
Chain of protein kinases (human kinome) (Homo sapiens, UniProt P31749) (P31749 whole entry): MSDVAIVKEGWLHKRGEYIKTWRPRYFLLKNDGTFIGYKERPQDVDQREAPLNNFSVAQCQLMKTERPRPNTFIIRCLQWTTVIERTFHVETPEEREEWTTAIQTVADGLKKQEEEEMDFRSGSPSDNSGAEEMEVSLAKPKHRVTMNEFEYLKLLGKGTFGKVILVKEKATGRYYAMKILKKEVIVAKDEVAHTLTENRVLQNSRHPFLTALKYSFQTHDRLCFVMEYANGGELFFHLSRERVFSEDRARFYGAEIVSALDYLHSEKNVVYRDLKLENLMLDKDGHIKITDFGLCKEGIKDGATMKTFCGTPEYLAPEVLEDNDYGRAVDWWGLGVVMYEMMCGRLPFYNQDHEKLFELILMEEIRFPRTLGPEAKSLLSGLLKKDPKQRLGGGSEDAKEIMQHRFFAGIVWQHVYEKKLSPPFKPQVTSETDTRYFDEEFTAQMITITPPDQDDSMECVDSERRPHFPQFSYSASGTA
Chain of protein kinases (human kinome) (Homo sapiens, UniProt Q8N4C8) (Q8N4C8 whole entry): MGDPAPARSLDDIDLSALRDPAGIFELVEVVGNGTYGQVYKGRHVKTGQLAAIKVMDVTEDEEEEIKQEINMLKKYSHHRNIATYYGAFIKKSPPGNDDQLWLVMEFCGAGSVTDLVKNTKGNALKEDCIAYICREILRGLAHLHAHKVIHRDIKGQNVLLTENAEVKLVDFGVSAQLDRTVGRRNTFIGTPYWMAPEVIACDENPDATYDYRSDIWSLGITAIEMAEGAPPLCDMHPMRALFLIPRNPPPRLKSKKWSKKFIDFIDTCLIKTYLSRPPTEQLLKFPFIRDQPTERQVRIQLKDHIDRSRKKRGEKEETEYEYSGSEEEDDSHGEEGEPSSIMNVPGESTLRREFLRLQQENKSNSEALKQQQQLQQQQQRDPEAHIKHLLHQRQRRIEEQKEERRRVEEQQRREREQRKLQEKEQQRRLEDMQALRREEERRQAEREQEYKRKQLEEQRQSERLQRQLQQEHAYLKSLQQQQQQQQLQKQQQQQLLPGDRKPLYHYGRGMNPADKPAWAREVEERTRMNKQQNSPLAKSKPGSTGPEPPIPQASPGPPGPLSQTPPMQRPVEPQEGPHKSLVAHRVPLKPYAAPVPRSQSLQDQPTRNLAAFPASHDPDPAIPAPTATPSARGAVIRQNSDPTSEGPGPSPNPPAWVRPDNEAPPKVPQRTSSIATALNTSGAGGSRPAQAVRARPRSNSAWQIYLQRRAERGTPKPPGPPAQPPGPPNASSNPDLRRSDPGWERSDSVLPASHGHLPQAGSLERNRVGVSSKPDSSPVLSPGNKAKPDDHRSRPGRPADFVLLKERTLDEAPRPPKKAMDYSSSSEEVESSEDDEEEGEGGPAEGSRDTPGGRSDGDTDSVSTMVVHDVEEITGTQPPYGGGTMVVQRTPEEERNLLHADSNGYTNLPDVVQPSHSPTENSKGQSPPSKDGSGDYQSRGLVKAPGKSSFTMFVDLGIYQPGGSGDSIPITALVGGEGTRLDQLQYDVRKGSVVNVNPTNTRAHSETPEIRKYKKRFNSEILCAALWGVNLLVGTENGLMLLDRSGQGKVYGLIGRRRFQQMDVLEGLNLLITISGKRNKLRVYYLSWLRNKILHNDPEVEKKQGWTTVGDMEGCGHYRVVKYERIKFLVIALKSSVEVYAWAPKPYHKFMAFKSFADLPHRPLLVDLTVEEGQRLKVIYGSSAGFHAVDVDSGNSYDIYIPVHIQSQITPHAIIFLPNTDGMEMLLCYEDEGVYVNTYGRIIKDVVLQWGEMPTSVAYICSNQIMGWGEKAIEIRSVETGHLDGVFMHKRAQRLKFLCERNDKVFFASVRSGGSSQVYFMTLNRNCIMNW
Chain of protein kinases (human kinome) (Homo sapiens, UniProt P49841) (P49841 whole entry): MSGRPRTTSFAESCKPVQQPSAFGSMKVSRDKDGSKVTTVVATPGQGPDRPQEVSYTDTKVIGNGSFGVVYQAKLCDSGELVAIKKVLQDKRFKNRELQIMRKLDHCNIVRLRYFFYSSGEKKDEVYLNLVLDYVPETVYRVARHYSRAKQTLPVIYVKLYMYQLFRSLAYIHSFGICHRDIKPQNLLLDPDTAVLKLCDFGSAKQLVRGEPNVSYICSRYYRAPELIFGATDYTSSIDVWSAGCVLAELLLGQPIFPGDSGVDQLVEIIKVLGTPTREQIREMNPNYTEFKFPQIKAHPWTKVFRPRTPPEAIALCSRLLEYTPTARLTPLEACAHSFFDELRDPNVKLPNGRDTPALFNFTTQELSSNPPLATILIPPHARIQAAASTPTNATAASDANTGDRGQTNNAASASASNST
Chain of protein kinases (human kinome) (Homo sapiens, UniProt P17948) (P17948 27-1338): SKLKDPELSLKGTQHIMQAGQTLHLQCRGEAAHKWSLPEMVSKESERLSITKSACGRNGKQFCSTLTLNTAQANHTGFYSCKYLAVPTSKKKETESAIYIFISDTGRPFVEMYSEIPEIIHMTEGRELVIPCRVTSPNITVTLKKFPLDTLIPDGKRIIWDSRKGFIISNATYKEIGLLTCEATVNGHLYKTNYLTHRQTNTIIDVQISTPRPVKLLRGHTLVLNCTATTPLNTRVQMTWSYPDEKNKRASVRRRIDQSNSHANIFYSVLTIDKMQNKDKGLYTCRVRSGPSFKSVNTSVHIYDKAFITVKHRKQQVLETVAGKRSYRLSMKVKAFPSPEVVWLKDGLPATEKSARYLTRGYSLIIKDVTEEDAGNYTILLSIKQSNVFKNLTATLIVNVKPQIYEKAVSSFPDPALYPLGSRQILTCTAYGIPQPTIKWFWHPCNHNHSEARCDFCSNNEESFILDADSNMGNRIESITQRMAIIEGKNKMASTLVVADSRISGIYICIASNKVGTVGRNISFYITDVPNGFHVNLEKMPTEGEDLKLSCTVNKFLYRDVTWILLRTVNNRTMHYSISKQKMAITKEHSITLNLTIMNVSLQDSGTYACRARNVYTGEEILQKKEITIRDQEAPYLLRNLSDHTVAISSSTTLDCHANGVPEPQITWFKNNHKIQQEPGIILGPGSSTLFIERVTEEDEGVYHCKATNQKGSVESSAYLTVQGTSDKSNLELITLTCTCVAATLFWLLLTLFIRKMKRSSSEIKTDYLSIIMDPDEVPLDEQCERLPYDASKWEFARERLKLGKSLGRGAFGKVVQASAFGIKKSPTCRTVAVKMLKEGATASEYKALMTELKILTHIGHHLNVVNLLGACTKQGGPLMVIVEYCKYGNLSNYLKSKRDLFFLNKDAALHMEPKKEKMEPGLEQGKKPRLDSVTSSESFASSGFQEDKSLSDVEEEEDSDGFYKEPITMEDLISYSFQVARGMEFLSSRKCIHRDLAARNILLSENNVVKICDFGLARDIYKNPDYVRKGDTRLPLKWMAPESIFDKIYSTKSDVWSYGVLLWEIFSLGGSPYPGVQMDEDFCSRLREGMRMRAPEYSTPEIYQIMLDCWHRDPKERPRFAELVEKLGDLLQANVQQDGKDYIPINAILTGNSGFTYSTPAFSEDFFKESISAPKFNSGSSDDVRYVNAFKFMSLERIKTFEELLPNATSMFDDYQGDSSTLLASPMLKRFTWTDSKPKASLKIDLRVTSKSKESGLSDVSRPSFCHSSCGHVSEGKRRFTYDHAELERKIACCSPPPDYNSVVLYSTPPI
Chain of protein kinases (human kinome) (Homo sapiens, UniProt Q15120) (Q15120 whole entry): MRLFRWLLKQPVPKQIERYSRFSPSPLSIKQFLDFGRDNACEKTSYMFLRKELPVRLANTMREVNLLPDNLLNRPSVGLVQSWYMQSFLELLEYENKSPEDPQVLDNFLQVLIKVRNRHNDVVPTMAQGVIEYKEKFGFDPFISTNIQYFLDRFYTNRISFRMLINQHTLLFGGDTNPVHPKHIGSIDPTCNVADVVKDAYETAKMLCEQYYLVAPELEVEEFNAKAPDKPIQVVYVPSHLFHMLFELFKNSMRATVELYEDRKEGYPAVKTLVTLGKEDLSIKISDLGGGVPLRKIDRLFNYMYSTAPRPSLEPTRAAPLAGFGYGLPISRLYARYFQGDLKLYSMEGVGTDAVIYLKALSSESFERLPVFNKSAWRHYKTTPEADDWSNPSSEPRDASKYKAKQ
Chain of protein kinases (human kinome) (Homo sapiens, UniProt Q16644) (Q16644 whole entry): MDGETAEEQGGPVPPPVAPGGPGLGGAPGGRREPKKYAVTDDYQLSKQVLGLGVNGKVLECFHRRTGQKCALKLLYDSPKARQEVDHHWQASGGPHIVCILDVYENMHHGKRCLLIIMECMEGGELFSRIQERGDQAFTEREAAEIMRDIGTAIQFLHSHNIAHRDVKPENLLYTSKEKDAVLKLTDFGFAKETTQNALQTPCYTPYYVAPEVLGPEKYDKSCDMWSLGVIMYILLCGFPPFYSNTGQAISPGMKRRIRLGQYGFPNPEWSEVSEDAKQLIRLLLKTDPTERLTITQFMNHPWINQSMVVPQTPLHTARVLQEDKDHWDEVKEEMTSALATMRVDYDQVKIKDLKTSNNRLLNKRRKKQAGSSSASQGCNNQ

In the case of `CC(C)S(=O)(=O)c1ccccc1Nc1nc(Nc2ccc(N3CCN(CCOCCOCCNC(=O)CNc4cccc5c4C(=O)N(C4CCC(=O)NC4=O)C5=O)CC3)cc2)ncc1Cl` (stereo not shown) [TL12.186], in test [1] (direction of change down), the “logFC FLT1 (P17948-1)” value is listed as −0.699. Moreover, the “logFC FLT1” value in test [1] (protein FLT1 (P17948-1), down) is on record as −0.699. The “logFC CERK” value in test [2] is reported as −0.3343.

`Cc1ccc(NC(=O)c2cccc(C(F)(F)F)c2)cc1N1Cc2cnc(Nc3ccc(N4CCN(CCCCC(=O)N[C@H](C(=O)N5C[C@H](O)C[C@H]5C(=O)N[C@@H](C)c5ccc(-c6scnc6C)cc5)C(C)(C)C)CC4)nc3)nc2N(C)C1=O` [DB1113] had a logFC in test [3] (MAPKAPK3 (Q16644)) of −3.127. For the same compound, the “logFC MAPKAPK3 (Q16644)” value in test [3] (direction of change down) is −3.127.

In the case of `CC(C)(C)c1nc(-c2cccc(NS(=O)(=O)c3c(F)cccc3F)c2F)c(-c2ccnc(NCCOCCNC(=O)CCOCCOCCNc3cccc4c3C(=O)N(C3CCC(=O)NC3=O)C4=O)n2)s1` (stereo not shown) [DD.03.106], the “logFC TESK2 (Q96S53-1)” value in [4] (direction of change down) is on record as −0.3831. Further, the “logFC TESK2” value in [4] (protein TESK2 (Q96S53-1), down) is recorded as −0.3831.

On to `Cc1ccc(NC(=O)c2cccc(C(F)(F)F)c2)cc1N1Cc2cnc(Nc3ccc(N4CCN(Cc5cn(CCCCCOc6cccc7c6C(=O)N(C6CCC(=O)NC6=O)C7=O)nn5)CC4)nc3)nc2N(C)C1=O` (stereo not shown) [DB0646, N-(3-(7-((6-(4-((1-(5-((2-(2,6-Dioxopiperidin-3-yl)-1,3-dioxoisoindolin-4-yl)oxy)pentyl)-1H-1,2,3-triazol-4-yl)methyl)piperazin-1-v)pyridin-3-yl)amino)-1-methyl-2-oxo-1,4-dihydropyrimido[4,5-d]pyrimidin-3(2H)-yl)-4-methylphenyl)-3-(trifluoromethyl)benzamide], for which the logFC in test [5] (experiment wp045) is listed as −1.296; in [5] (experiment wp103) it was −0.6848; in test [5] (experiment wp107) it was −1.024; in test [5] (experiment wp117), −1.027; in test [5] (experiment wp152), −1.147; in test [5] (experiment wp160, 4 hr) it was −0.5025. Also, the logFC in test [5] (experiment wp160, 8 hr) is listed as −0.8848.

In the case of `C[C@@H]1C[C@@H](O)c2ncnc(N3CCN(C(=O)[C@H](CNCCCCCCCCCCc4cccc5c4C(=O)N(C4CCC(=O)NC4=O)C5=O)c4ccc(Cl)cc4)CC3)c21` (stereo partly shown) [INY.03.041.01], the logFC is recorded as −2.258 in test [6] (experiment wp118) and −1.225 in test [6] (experiment wp135, 4 hr). In addition, the “logFC of AKT1 (P31749)” value in [6] (Experiment wp135, 4 hr) is recorded as −1.225; in test [6] (experiment wp118), −2.258.

Take `Nc1ncnc2c1c(-c1ccc(Oc3ccccc3)cc1)nn2[C@H]1CC[C@H](N2CCN(CCOCCNC(=O)CNc3cccc4c3C(=O)N(C3CCC(=O)NC3=O)C4=O)CC2)CC1` (stereo partly shown) [SB1.G.181]: the logFC in test [7] (MAP2K5 (Q13163-1)) is listed as −1.138. The “logFC of MAP2K5 (Q13163-1)” value in test [7] was −1.138.

Consider `C=CCn1c(=O)c2cnc(Nc3ccc(N4CCN(CCCNc5cccc6c5C(=O)N(C5CCC(=O)NC5=O)C6=O)CC4)cc3)nc2n1-c1cccc(C(C)(C)O)n1` (stereo not shown) [ZNL.02.096], for which the “logFC GALK2” value in test [8] is recorded as −0.3724.

As to `Nc1ncc(-c2ccc(S(=O)(=O)N(CCCNC(=O)CCOCCOCCOCCOCCOCCNc3cccc4c3C(=O)N(C3CCC(=O)NC3=O)C4=O)C3CC3)cc2)cc1-c1ccc2c(c1)CCNC2=O` (stereo not shown) [WH.10417.099], the logFC was −0.5845 in test [9] (experiment wp056) and −0.4154 in test [9] (experiment wp107). Besides, in [10] (Accession P49841-1, experiment wp172, direction down), the “logFC GSK3B” value is −0.8298. The “logFC of GSK3B (P49841-1)” value in test [10] (Experiment wp172) is given as −0.8298. Moreover, the “logFC MINK1 (Q8N4C8-1)” value in test [11] (direction of change down) is −0.5661. Also, the “logFC MINK1” value in test [11] (protein MINK1 (Q8N408-1), down) is on record as −0.5661.

Consider `CC(C)S(=O)(=O)c1ccccc1Nc1nc(Nc2ccc(N3CCN(CCOCCNC(=O)CNc4cccc5c4C(=O)N(C4CCC(=O)NC4=O)C5=O)CC3)cc2)ncc1Cl` (stereo not shown) [SK.3.91], for which, in test [12], the “logFC PDK3 (Q15120-1)” value is −0.9801 and the “logFC of PDK3 (Q15120-1)” value is given as −0.9801. In test [13], the “logFC ITPKC” value is on record as −0.3556. In [14] (Experiment wp160, 2 hr), the “logFC CDK9 (P50750)” value is −0.404 and the “logFC of CDK9 (P50750)” value is given as −0.404. Moreover, in test [14] (Experiment wp172), the “logFC CDK9 (P50750)” value is listed as −1.423 and the “logFC of CDK9 (P50750)” value is recorded as −1.423. Further, in test [14] (experiment wp160, 4 hr), the “logFC CDK9 (P50750)” value is listed as −1.068 and the “logFC of CDK9 (P50750)” value is listed as −1.068.

The compound `Cc1ncsc1-c1ccc([C@H](C)NC(=O)[C@@H]2C[C@@H](O)CN2C(=O)[C@@H](NC(=O)CCCCCN2CCN(c3ccc(Nc4ncc5scc(-c6cccc(NS(C)(=O)=O)c6)c5n4)cc3)CC2)C(C)(C)C)cc1` [RSS0680, (2S,4R)-1-((S)-3,3-Dimethyl-2-(6-(4-(4-((7-(3-(methylsulfonamido)phenyl)thieno[3,2-d]pyrimidin-2-yl)amino)phenyl)piperazin-1-yl)hexanamido)butanoyl)-4-hydroxy-N—((S)-1-(4-(4-methylthiazol-5yl)phenyl)ethyl)pyrrolidine-2-carboxamide] returned a logFC in [15] of −0.3389.
